# Measurements from US20010051630A1, “Use of hydroxylamine derivatives, and method and preparations for increasing the tolerance of field crops against weather stresses” (priority 1997, published 2001).
# Marks after values point to notes of the source that are not given here.
# Key:
# McCall soybeans = test: CSVT, McCall soybeans; type: in vivo, soybean
# Protocol: (§1) In this experiment the tolerance of maize, soybean and pepper seeds treated with the active agent against cold was tested. This test imposed temperature and oxygen deficiency stresses on the seeds and was carried out according to Barla-Szabó and Dolinka CSVT (Complex Stressing Vigour Test). For a single test, two hundred seeds were soaked for 48 hours at 25° C. and another 48 hours at 5° C in 150 ml distilled water containing the active agent in 10 mg/l concentration. Following the 96 hours of soaking, the seeds were further germinated between rolled wet paper for 96 hours at 25° C. There were 25 seeds in each roll, the rolls were placed vertically into containers and covered with a plastic bag in order to reduce evaporation. During the whole procedure the seeds were kept in darkness.
# (§2) At the end of the experiment the number of normally developing and ungerminated seeds were recorded. The length of the normal seedlings was measured and the average length of the five longest seedlings was calculated. Seedlings longer than 0.33 times the average length of the five longest seedlings were considered to be of high vigour, and low vigour seedlings were shorter than this length.
# When applying the CSVT test, the following results were obtained (Table 4.).
# bean cv. Seaway = test: Frost tolerance of beans; type: in vivo; details: watering, 10 mg/l; −2° C. for 8 hours
# Protocol: Seedlings of bean cv. Seaway were cultivated under normal conditions for the first two weeks, then they were treated with 10 mg/liter and 100 mg/liter concentration solutions of the examined active agents 2 and 1 days before the initiation of the frost tolerance experiments. In the experiment, the plants were kept at −2° C. for 8 hours, then grew under normal conditions for I week, and the survival ratio was determined. 4 trays were used for each experiment and 6 seeds were planted in each tray.
# soybean cv. Bólyi 44 = test: Drought tolerance of soybeans; type: in vivo; details: 6 days hardening; 50 mg/liter in the water; 4 days without watering, one week regeneration
# Protocol: Soybeans of soybean cv. Bólyi 44 were hardened for 6 days by withholding the water. This was followed by two days of watering, and the active agent was applied in the water. The concentration of the solution of the active agent was 50 mg/liter. After a 4-day-long cease of watering and a one week regeneration period, the number of surviving plants was recorded.
# Watering was ceased for 10 days for a certain group of plants in the experiment. It was observed that almost every plant perished. Each of the 4 surviving plants had previously been treated with the active agent.
# green peppers = test: CSVT, green peppers; type: in vivo, pepper
# Protocol: as §1, §2
# Under the circumstances of the CSVT test, they increased the length of the sprouts and the roots along with the proportion of the high vigour seedlings. […]
# bean plants (cv. Seaway) = test: Drought tolerance of beans, part b (7 days hardening); type: in vivo; details: 7 days without water, 10 mg/liter and 100 mg/liter solution named, table does not say which
# Description: Based on the experiences of our preliminary experiments, the plants were hardened before the application of the active agent by withholding the water for a few days, until the first signs of withering appeared. Then the plants were watered and the active agent was either dissolved in the water, or sprayed to the plants directly. Afterwards, the plants were subjected to different periods of drought according to the given experiment, watered again, and after a week-long regeneration period, the survival ratio was determined.
# b) In this experiment, bean plants (cv. Seaway) were hardened for 7 days instead of the 5 days described in Part a. Then a 10 mg/liter and 100 mg/liter concentration solution of the active agent was applied two times a day for two days. Then 7 days without water followed, and after a week-long regeneration period, the results of the experiment were evaluated.
# [1] = system: maize of low chilling tolerance (LT) population; test: CSVT, maize population of low chilling tolerance (LT); type: in vivo
# Protocol: as §1, §2
# (§3) In the case of a further experiment with maize of low chilling tolerance (LT) and high chilling tolerance (HT) populations [Ref: P. Landi, E. Frascaroli, A. Lovato; EUPHYTICA 64 21-29 (1992)], the following positive effects were found (Table 3.).
# Soybean seeds = test: Pearling of soybean seeds, then CSVT; type: in vivo
# Protocol: as §1, §2
# Soybean seeds are treated with a pearling agent, which contains 1 mg/ml of N-[3-(1-piperidinyl)propoxy]-3-nitro-benzimidoyl-chloride monohydrochloride (Compound 3) in a 5% aqueous polyvinylalcohol solution. 100 seeds and 1 ml of pearling agent are filled into a glass vessel and while the vessel is rotated, the seeds are coated with the agent and then it is left to dry. For seeds treated this way, we obtained the following results when placed under the conditions of the CSVT test described in Example 7.
# Mo 17 inbred maize line = test: CSVT (Complex Stressing Vigour Test), seeds soaked in active agent, Mo 17 maize; type: in vivo; details: seeds soaked in 10 mg/l active agent, * = significant vs control P < 0.05
# Protocol: as §1, with “darkness. At the end of the experiment the number of normally developing and ungerminated seeds were recorded. The length of the normal seedlings was measured and the average length of the five longest seedlings was calculated. Seedlings longer than 0.33 times the average length of the five longest seedlings were considered to be of high vigour, and low vigour seedlings were shorter than this length.” for “darkness.”
# [2] = system: maize of high chilling tolerance (HT) population; test: CSVT, maize population of high chilling tolerance (HT); type: in vivo
# Protocol: as §1, §2, §3
# HMv09 inbred maize line = test: CSVT, seeds soaked in active agent, HMv09 maize; type: in vivo; details: seeds soaked in 10 mg/l active agent
# Protocol: as §1, with “darkness. At the end of the experiment the number of normally developing and ungerminated seeds were recorded. The length of the normal seedlings was measured and the average length of the five longest seedlings was calculated. Seedlings longer than 0.33 times the average length of the five longest seedlings were considered to be of high vigour, and low vigour seedlings were shorter than this length.” for “darkness.”
# [3] = 100 seeds pearled with 1 ml of 1 mg/ml in 5% PVA
smiles,measurement,setting,value
"Cl.O=[N+]([O-])c1cccc(C(Cl)=NOCCCN2CCCCC2)c1 [Compound 3, N-[3-(1-piperidinyl)propoxy]-3-nitro-benzimidoyl-chloride monohydrochloride]",Ratio of high vigour plants (%),McCall soybeans,46* %
same,Survival (%),bean cv. Seaway,40* %
same,Survival (%),soybean cv. Bólyi 44,33* %
same,Ratio of high vigour plants (%),green peppers,45* %
same,Survival (%),bean plants (cv. Seaway),39* %
same,"Ratio of high vigour plants %, LT",[1],88* %
same,"Ratio of high vigour plants (%), root",Soybean seeds; [3],58* %
same,"Ratio of high vigour plants (%), sprout",Soybean seeds; [3],63* %
same,effect on ratio of high vigour plants and length of sprouts and roots,Soybean seeds; PVA solution containing Compound 3 as pearling agent,increase the ratio of high vigour plants significantly
same,Ratio of high vigour plants (%),Mo 17 inbred maize line,28* %
same,"Ratio of high vigour plants %, HT",[2],94* %
same,Ratio of high vigour plants (%),HMv09 inbred maize line,40* %
